Assay results reported in publication PMC5444695, “CM363, a novel naphthoquinone derivative which acts as multikinase modulator and overcomes imatinib resistance in chronic myelogenous leukemia” (Oncotarget, 2016).
Where a name gives a salt, the structure may show the parent alone.

Assays:
K562 cells = assay: Live-cell imaging (IncuCyte HD) of proliferation and cytotoxicity, K562 cells; type: cell-based, human; conditions: Homo sapiens, 96 h; IM sensitive K562, continuous exposure over 4-day period, area under curve; read-out: IC50AUC, cytostatic effect on cell growth
Method: Kinetic measurements of cell proliferation and cytotoxicity were carried out by using the IncuCyte^TM HD real time imaging system (Essen BioScience, Hertfordshire, United Kingdom). After seeding in a polylysine-coated 96 well-plates, K562 cells were treated with different concentrations of compound. This IncuCyte™ microscope permits the acquisition of automated phase contrast images. Individual images are processed by an imbedded contrast-based confluence algorithm, which compute monolayer confluence for each image and at each time point. Multiple images are collected per well and averaged to provide a representative statistical measure of confluence.

pTyr694-Stat5 (pYStat5) = assay: Immunoblotting of constitutive pYStat5 in K562 cells; type: cell-based; conditions: Homo sapiens; K562, 0.05 μM IM, 3 h
Method: Then, cells were rinsed with cold PBS-vanadate (1 mM) followed by preparation of whole lysis extract with RIPA (Pierce, Illinois, USA). Equal amounts of each sample were separated by SDS-PAGE and transfered onto nitrocellulose membranes. After being blocked with 1% BSA-1% Blotto (anti-phospho-antibodies) (Santa Cruz Biotechnology, CA, USA) or 5% blotto (anti-total-antibodies) (Santa Cruz Biotechnology, CA, USA) (both diluted in Tris buffered saline with 0.05% Tween 20), membranes were immunoblotted overnight at 4°C with dilution (1:1000) in the same buffer of blocking of primary phosphoprotein or total protein antibodies. […] To control for differences in loading and transfer efficiency across membranes, membranes were incubated with a monoclonal mouse anti-beta actin antibody (Santa Cruz Biotechnology, CA, USA). The phosphoprotein array analysis of K562 cells was carried out by using the Profiler Human Phospho-Kinase Array Kit ARY003B (R&D Systems, Minneapolis, MN, USA) according to the manufacturer`s instructions.

Cc1ccc(NC(=O)c2ccc(CN3CCN(C)CC3)cc2)cc1Nc1nccc(-c2cccnc2)n1 [IM, imatinib mesylate, reference compound]
IC50 (K562 cells): 0.2 ± 0.1 µM | inhibition at 0.05 µM (pTyr694-Stat5 (pYStat5)): 40%
